“Also recorded” adds a separate entry of the source.
Columns and labels:
C57BL/6J mice = assay: Acute tunicamycin-induced NAFLD/NASH model: histological liver damage score; format: in vivo, mouse; settings: 60 mg/kg/d in drinking water, 3 mice with and 3 without NAM, 48 h after tunicamycin 2 μg/g i.p., FIG. 4
Method: In order to extend the findings of von Schönfels et al. 2014 (Liver Int. doi: 10.1111/liv.12476) with NA in a chronic model of NAFLD, the effect of NAM was investigted in an acute murine model of NASH (Lee et al. 2012, Toxicol. Lett. 211:29). C57BL/6J mice (n=6; age: 12-13 weeks) were injected intraperitoneally with tunicamycin (TM; 2 μg/g body weight). After 48 h, the mice were sacrificed and liver tissue was collected for histological analysis of signs of NAFLD/NASH as described previously (Lee et al. 2012, Toxicol. Lett. 211:29). NAM was administered to three of the six mice in the drinking water from 2 days before the TM challenge until the end of the experiment. NAM was administered at 0.4 g/l, corresponding to approximately 60 mg/kg/d (assumptions from general averages: body weight of a mouse: 20 g; water intake: 3 mL/mouse/d; 3 mL with a concentration of 0.4 g/L contained 1.2 mg NAM, resulting in a dose of approximately 60 mg/kg/d).
Paraffin-embedded liver tissue sections (3 μm) from mice after TM challenge were subjected to hematoxylin/eosin staining and scored in a blinded manner. Hepatic steatosis, hepatocyte ballooning and inflammation were determined in a scoring system modified from Brunt 2001 (Semin. Liver Dis. 21:3). The stage scores were based on liver fibrosis. The 0-3 grading includes: 0, none; 1, mild; 2, moderate; and 3, severe.

[1] = cited from earlier work

| SMILES | tunicamycin-induced NAFLD/NASH liver damage score (C57BL/6J mice) | recommended maximum nutritional doses ([1]; adults, SCF/CS/NUT/UPPLEV/39) | doses above which side effects including flush, tachycardia, blood pressure dysregulation and diarrhea have to be anticipated ([1]; Carlson 2005, German Federal Institute for Risk Assessment) [mg/day] | tolerable upper intake level without anticipated side effects ([1]; adults, European Scientific Committee on Food) [mg/day] |
| --- | --- | --- | --- | --- |
| NC(=O)c1cccnc1 [NAM, nicotinamide] | small, but significant reduction; also recorded: moderate, but significant protection | up to 900 mg/d | – | – |
| O=C(O)c1cccnc1 [nicotinic acid] | – | – | 100 to 300 | 10 |
